Measured values reported in patent US20240018132A1, “5-HYDROXY-1,4-NAPHTHALENEDIONE FOR USE IN THE TREATMENT OF CANCER” (GODAVARI BIOREFINERIES LIMITED, priority 2020, published 2024).

Experiments:
Human lymphocytes = assay: Lymphocyte assay (MTT on normal cells); format: cell-based; conditions: Lymphocyte; human peripheral blood lymphocytes, MTT procedure
Experimental: Human lymphocytes were isolated from the peripheral blood. A pure population of lymphocytes was obtained based on differential centrifugation, in which diluted defibrinated blood was layered on a solution of sodium diatrizoate and polysucrose (HiSep LSM 1077) and centrifuged at low speeds for 30 mins.
Procedure: The separation of lymphocytes from fresh defibrinated blood was performed by the procedure described below: • 1. Diluted defibrinated fresh blood was overlaid gradually on (HiSeP LSM1077) and centrifuged at low speed for 30 mins. • 2. The lymphocyte layer (the buffy coat) was carefully removed in a new collection tube. • 3. The buffy coat was given another wash, by the diluent buffer Dulbecco's phosphate buffered saline (D.P.B.S) • 4. The supernatant was discarded and the pellet was resuspended in D.P.B.S. • 5. The viability of cells was checked by Haemocytometer. • 6. Cells with purity and viability of more than 95% were taken for the experiment. • 7. Purified lymphocytes were diluted at a concentration of 0.7 million/ml with sterile D.P.B.S and MTT procedure was performed exactly as described earlier.

PC3 [1] = assay: In vitro sphere-forming assay (cancer stem cells), Prostosphere media; conditions: for 3D sphere count of PC3: Prostosphere media, 2000 cells/well, n = 6 ± S.D
Procedure: In Vitro Sphere-forming Assay: Sphere assay measures the ability of cancer stem cells (CSCs) to form spheres in specially designed serum-free medium.
Prostosphere Media Preparation (For 100 mL):1 g methyl cellulose autoclaved with magnetic stirrer, 100 mL plain media (Prostate Epithelial Basal Medium) was added and dissolved, under magnetic stirring. After complete dissolution, Insulin-40 μL, B27-2 mL, EGF-80 μL, Penstrep-1 ml was added.
Procedure—The cells were trypsinised and made into single-cell suspension by passing through cell strainers (100 μl and 40 μl, respectively), The cells were diluted at a concentration of 2000 cells/100 μL and suspended in either Mammosphere (for breast cell lines) or Prostosphere (for prostate cell lines). 100 μL of this suspension was added into each well of 96-well suspension plates and incubated at 37° C., 5% CO2 for 24 hrs. Appropriate concentrations of the drugs (2 μL) were added into respective wells with 100 μL of stem cell culture medium. Plates were incubated at 37° C., 50 CO2 for 72 hrs. After incubation, 2.5 μL of the respective drug concentration and 50 μL of stem cell culture medium were added into each well and the plates were further incubated at 37° C., 50% CO2 for 72 hrs. 3 μL of the respective drug concentration was added with 50 μL of stem cell culture medium again after incubation and plates were reincubated for 72 hrs at 37° C., 50 CO2. Number of primary spheres formed for each concentration were counted. The spheres were converted to 0 viability of spheres compared to untreated (Growth Control with DMSO, GCD).

MDAMB231 [2] = assay: In vitro antiproliferative assay (MTT assay), breast cancer cell line; format: cell-based; conditions: Homo sapiens, MDA-MB-231, 48 h, MTT assay, breast cancer MDAMB231, 48 hrs drug incubation
Experimental: (§1) MTT assay is a simple and sensitive assay where, metabolic reducing activity of the cells is measured. The increase of this activity in time is taken as a parameter of cell growth. If treatment with a drug impairs this increase, the action is a consequence of growth inhibition, cell killing or both. […] All cell lines were cultured in a 37° C. incubator with a 5% CO2 environment. Compounds were dissolved in DMSO with a concentration of 0.1M (stock solution). Cells were seeded into 96-well plates at suitable plating efficiency.
(§2) Following plating efficiencies were standardized for MTT assay:
(§3) In the MTT procedure, the cells were plated in 96 well plates as per predetermined plating efficiency (Table1). The plates were then incubated for 24 hrs in 5% CO2 atmosphere at 37° C. Appropriate concentrations of the drugs were then added to the plate and further incubation was carried out for 48 hrs (in 5% CO2 atmosphere at 37° C.). The assay plate was then centrifuged twice at 3000 rpm for 3 mins and supernatant was then discarded. 100 ul of MTT solution (0.5 mg/ml) was then added to each well of the plate and it was further incubated for 4 hrs (in 5% CO2 atmosphere at 37° C.) Following 4 hr incubation, the plate was then centrifuged twice, and supernatant was aspirated off very carefully. 200 ul of DMSO was then added to each well to solubilize. MTT crystals and mixed well by shaking the plate. XY graph of log percent viability was then plotted against log drug concentration.

MDAMB231 [3] = assay: In vitro sphere-forming assay (cancer stem cells), Mammosphere media; conditions: for 3D sphere count of MDAMB231: Mammosphere media, 2000 cells/well, n = 6 ± S.D
PC3 [4] = assay: In vitro antiproliferative assay (MTT assay), prostate cancer cell line; format: cell-based; conditions: Homo sapiens, PC-3, 48 h, MTT assay, prostate cancer PC3, 48 hrs drug incubation
Experimental: as §1, §2, §3

[5] = Homo sapiens, PC-3, read-out: % Viability of spheres (PC3)
[6] = Homo sapiens, MDA-MB-231, read-out: % Viability of spheres (MDAMB231)

Row | IC50 (MDAMB231 [2]) [nM] | IC50 (PC3 [4]) [nM] | Structure (SMILES) | IC50 (Human lymphocytes) [nM] | viability at 0.025 µM (PC3 [1]; [5]) [%] | viability at 0.25 µM (PC3 [1]; [5]) [%] | viability at 2.5 µM (PC3 [1]; [5]) [%] | viability at 25 µM (PC3 [1]; [5]) [%] | 3D sphere count of PC3 (PC3 [1]; drug 0.025 uM) | 3D sphere count of PC3 (PC3 [1]; drug 0.25 uM) | 3D sphere count of PC3 (PC3 [1]; drug 2.5 uM) | 3D sphere count of PC3 (PC3 [1]; drug 25 uM) | viability at 0.025 µM (MDAMB231 [3]; [6]) [%] | viability at 0.25 µM (MDAMB231 [3]; [6]) [%] | viability at 2.5 µM (MDAMB231 [3]; [6]) [%] | viability at 25 µM (MDAMB231 [3]; [6]) [%] | 3D sphere count of MDAMB231 (MDAMB231 [3]; drug 0.025 uM) | 3D sphere count of MDAMB231 (MDAMB231 [3]; drug 0.25 uM) | 3D sphere count of MDAMB231 (MDAMB231 [3]; drug 2.5 uM) | 3D sphere count of MDAMB231 (MDAMB231 [3]; drug 25 uM) | viability at 0.0025 µM (PC3 [1]; [5]) [%] | further results
1 | 656 | 579 | O=C1C(c2ccc3c(c2)OCO3)=CC(=O)c2c(OCCN3CCOCC3)cccc21 [Formula 1, 5-(2-morpholinoethoxy)-2-(benzo[d][1,3]dioxol-6-yl)naphthalene-1,4-dione] | 1490 | 80 | 62 | 45 | 30 | 65(±3) | 51(±3) | 37(±3) | 25(±3) | 83 | 62 | 44 | 31 | 64(±5) | 48(±4) | 34(±4) | 24(±4) |  | viability at 250 µM (PC3 [1]; [5]): 16%; 3D sphere count of PC3 (PC3 [1]; drug 250 uM): 13(±3); viability at 250 µM (MDAMB231 [3]; [6]): 13%; 3D sphere count of MDAMB231 (MDAMB231 [3]; drug 250 uM): 10(±2)
2 | 2750 | 2120 | O=C1C(c2ccc3c(c2)OCO3)=CC(=O)c2c(OCCCC(=O)N3CCOCC3)cccc21 [Formula 69] | 12100 | 65 | 49 | 35 | 21 | 53(±3) | 40(±2) | 29(±2) | 17(±3) | 70 | 57 | 35 | 19 | 58(±3) | 47(±3) | 29(±3) | 16(±2) | 93 | 3D sphere count of PC3 (PC3 [1]; drug 0.0025 uM): 76(±3); viability at 0.0025 µM (MDAMB231 [3]; [6]): 86%; 3D sphere count of MDAMB231 (MDAMB231 [3]; drug 0.0025 uM): 71(±3)
3 | 3020 | 2230 | O=C(O)CCCOc1cccc2c1C(=O)C=C(Nc1ccc3c(c1)OCO3)C2=O [Formula 70] | 5410 | 67 | 50 | 41 | 31 | 55(±2) | 41(±3) | 34(±4) | 25(±3) | 74 | 62 | 41 | 24 | 61(±3) | 51(±3) | 34(±3) | 20(±2) | 95 | 3D sphere count of PC3 (PC3 [1]; drug 0.0025 uM): 78(±2); viability at 0.0025 µM (MDAMB231 [3]; [6]): 86%; 3D sphere count of MDAMB231 (MDAMB231 [3]; drug 0.0025 uM): 71(±3)
